Assay results reported in article PMC3704178 (ACS medicinal chemistry letters, 2013).

Legend:
[1] = system: PrP^Sc level in RML prion-infected mouse neuroblastoma cells (ScN2a-cl3); format: cell-based
[2] = Microsomal stability, mouse microsomes
[3] = Microsomal stability, human microsomes

## CC(=O)c1ccc(N2CCN(Cc3ccccc3)CC2)cc1 [Compound 1]
[1]
  Antiprion potency EC50 ± SEM: micromolar range

## CC(=O)c1ccc(N2CCN(Cc3cccnc3)CC2)cc1 [Compound 7]
[1]
  Antiprion potency EC50 ± SEM: micromolar range

## CC(=O)c1ccc(N2CCN(Cc3cccs3)CC2)cc1 [Compound 13]
[1]
  Antiprion potency EC50 ± SEM: micromolar range

## CC(=O)c1ccc(N2CCN(Cc3ccc(C)o3)CC2)cc1 [Compound 19]
[1]
  Antiprion potency EC50 ± SEM: micromolar range

## c1cncc(CN2CCN(c3ccc(-c4nc5ccccc5o4)cc3)CC2)c1 [Compound 41]
[1]
  Fold more potent (EC50) than furanyl 42 and thiophenyl 43: ≥ 13 fold

## c1cncc(CN2CCN(c3ccc(-c4nc5ccccc5s4)cc3)CC2)c1 [Compound 44]
[2]
  Fold improvement of t1/2 in mouse microsomes compared to 41: approximately 2 fold

## Fc1ccc(CN2CCN(c3ccc(-c4nc5ccccc5o4)cc3)CC2)cn1 [Compound 46]
[1]
  Fold less potent (EC50) than parent pyridine analog 41: 1.5 fold

## COc1ccc(CN2CCN(c3ccc(-c4nc5ccccc5o4)cc3)CC2)cn1 [Compound 47]
[1]
  Fold less potent (EC50) than parent pyridine analog 41: 4.5 fold
[2]
  Fold improvement of t1/2 in mouse microsomes compared to 41: approximately 3 fold
[3]
  Fold increase in stability in human microsomes compared to 41: approximately 3 fold
